This passage reports GI50 results from patent US20250017914A1, “6-AZA-QUINOLINE DERIVATIVES AND RELATED USES” (Black Diamond Therapeutics, Inc., priority 2021, published 2025).

Molecules are shown by their SMILES. Some results are limits rather than exact numbers.

The target of one assay is T1, BaF3 BRAF-KIAA1549 fusion cells (Homo sapiens, UniProt P15056).
T1 construct: The BRAF-KIAA1549 fusion mutant was subcloned into pMXs-IRES-Blasticidin (RTV-016, Cell Biolabs, San Diego, CA); No tag given; Q9HCM3 (UPF0606 protein KIAA1549)
T1 sequence (P15056 whole entry, change not shown, the tested form may be a part): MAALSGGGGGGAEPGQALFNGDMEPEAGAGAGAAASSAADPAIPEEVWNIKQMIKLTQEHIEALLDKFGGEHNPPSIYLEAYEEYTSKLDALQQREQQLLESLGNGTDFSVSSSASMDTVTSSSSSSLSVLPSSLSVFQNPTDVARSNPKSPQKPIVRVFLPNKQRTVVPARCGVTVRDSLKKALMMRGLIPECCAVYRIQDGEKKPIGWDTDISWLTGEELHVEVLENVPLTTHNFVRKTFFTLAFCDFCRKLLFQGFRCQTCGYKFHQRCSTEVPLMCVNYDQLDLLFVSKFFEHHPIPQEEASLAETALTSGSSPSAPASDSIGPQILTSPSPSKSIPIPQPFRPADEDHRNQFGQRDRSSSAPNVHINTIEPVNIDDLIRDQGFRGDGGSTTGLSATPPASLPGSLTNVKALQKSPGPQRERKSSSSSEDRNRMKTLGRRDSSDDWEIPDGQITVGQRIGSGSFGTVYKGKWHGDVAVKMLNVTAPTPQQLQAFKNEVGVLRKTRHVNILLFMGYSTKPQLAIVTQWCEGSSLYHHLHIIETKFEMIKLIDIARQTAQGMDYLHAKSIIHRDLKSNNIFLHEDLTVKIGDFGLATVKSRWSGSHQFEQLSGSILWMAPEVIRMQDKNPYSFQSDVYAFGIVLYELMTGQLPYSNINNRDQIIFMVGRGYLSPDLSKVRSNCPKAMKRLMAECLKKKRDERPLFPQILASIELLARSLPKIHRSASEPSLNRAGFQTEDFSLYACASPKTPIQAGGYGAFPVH
The experiment in a line: BaF3 BRAF-KIAA1549 fusion cell proliferation assay (CellTiterGlo, 96 hours). As to conditions: Table A1. It is filed as cell-based. The procedure, abridged: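 BaF3 cells retrovirally transduced with BRAF-KIAA1549 fusion and blasticidin-selected were plated at 7×10^4 c/well in RPMI, 10% heat-inactivated FBS, 1% L-glutamine, and exposed to compound for 96 hours. Growth was read as ATP content by CellTiterGlo luminescence. IC50 was fitted by Levenberg-Marquardt, normalised to DMSO-treated cells.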
Background: Cellular ATP, detected with luciferase, serves as a proxy for viable cell number.
With `CNc1cc2ncc(-c3cc(NC(=O)c4cc(C(F)(F)F)c(F)cn4)cnc3C)cc2cn1` [Compound 60, 5-Fluoro-N-(6-methyl-5-(7-(methylamino)-1,6-naphthyridin-3-yl)pyridin-3-yl)-4-(trifluoromethyl)picolinamide], the concentration for 50% growth inhibition (GI50) – broadly, the concentration at which growth is held to half of that of the control – is below 20 nM.

`CNc1cc2ncc(-c3cc(NC(=N)c4cc(C(F)(F)F)ccn4)ccc3C)cc2cn1` [Compound 61, N-(4-Methyl-3-(7-(methylamino)-1,6-naphthyridin-3-yl)phenyl)-4-(trifluoromethyl)picolinimidamide] showed a GI50 of 100 to 500 nM.

`CNc1cc2ncc(-c3cc(NC(=O)CN4CCC[C@H](C(F)(F)F)C4)cnc3C)cc2cn1` [Compound 62, (S)—N-(6-Methyl-5-(7-(methylamino)-1,6-naphthyridin-3-yl)pyridin-3-yl)-2-(3-(trifluoromethyl)piperidin-1-yl)acetamide] returned a GI50 of 20 to 100 nM.

On to `CNc1cc2ncc(-c3cc(NC(=O)CN4CCC[C@H](C(F)(F)F)C4)ccc3C)cc2cn1` [Compound 63, (S)—N-(4-Methyl-3-(7-(methylamino)-1,6-naphthyridin-3-yl)phenyl)-2-(3-(trifluoromethyl)piperidin-1-yl)acetamide], for which the GI50 was 20 to 100 nM.

Regarding `CNc1cc2ncc(-c3cc(NC(=N)c4cc(C(F)(F)F)ccn4)cnc3C)cc2cn1` [Compound 64, N-(6-Methyl-5-(7-(methylamino)-1,6-naphthyridin-3-yl)pyridin-3-yl)-4-(trifluoromethyl)picolinimidamide], the concentration for 50% growth inhibition (GI50) was at least 500 nM.

For the molecule `CNc1cc2ncc(-c3cc(NC(=O)c4cc(C(C)(C)F)ccn4)cnc3C)cc2cn1` [Compound 65, 4-(2-Fluoropropan-2-yl)-N-(6-methyl-5-(7-(methylamino)-1,6-naphthyridin-3-yl)pyridin-3-yl)picolinamide], the concentration for 50% growth inhibition (GI50) lay in the range of 20 to 100 nM.

For `CNc1cc2ncc(-c3cc(NC(=O)c4cc(C(F)F)c(F)cn4)cnc3C)cc2cn1` [Compound 66, 4-(Difluoromethyl)-5-fluoro-N-(6-methyl-5-(7-(methylamino)-1,6-naphthyridin-3-yl)pyridin-3-yl)picolinamide], the GI50 fell in the range of 20 to 100 nM.

The molecule `CNc1cc2ncc(-c3cc(NC(=O)c4cc(C(F)(F)F)c(OCCO)cn4)ccc3C)cc2cn1` [Compound 71, 5-(2-hydroxyethoxy)-N-(4-methyl-3-(7-(methylamino)-1,6-naphthyridin-3-yl)phenyl)-4-(trifluoromethyl)picolinamide] came in with a 50% growth inhibitory concentration (GI50) of 20 to 100 nM.

The molecule `CNc1cc2ncc(-c3cc(NC(=O)c4ccc(OC(F)F)cn4)cnc3C)cc2cn1` [Compound 72, 5-(Difluoromethoxy)-N-(6-methyl-5-(7-(methylamino)-1,6-naphthyridin-3-yl)pyridin-3-yl)picolinamide] yielded a 50% growth inhibitory concentration (GI50) of at least 500 nM.

In the case of `CNc1cc2ncc(-c3cc(NC(=O)c4cc(C(F)(F)F)ccn4)nnc3C)cc2cn1` [Compound 75, N-(6-methyl-5-(7-(methylamino)-1,6-naphthyridin-3-yl)pyridazin-3-yl)-4-(trifluoromethyl)picolinamide], the GI50 was 20 to 100 nM.

`CNc1cc2ncc(-c3cc(NC(=O)c4cc(C(C)(C)C#N)ccn4)nnc3C)cc2cn1` [Compound 77, 4-(2-cyanopropan-2-yl)-N-(6-methyl-5-(7-(methylamino)-1,6-naphthyridin-3-yl)pyridazin-3-yl)picolinamide] had a concentration for 50% growth inhibition (GI50) of 20 to 100 nM.

For the molecule `Cc1ccc(NC(=O)c2cc(C(F)F)ccn2)cc1-c1cnc2cc(NCCC#N)ncc2c1` [Compound 78, N-(3-(7-((2-cyanoethyl)amino)-1,6-naphthyridin-3-yl)-4-methylphenyl)-4-(difluoromethyl)picolinamide], the GI50 was 20 to 100 nM.

Molecule `CNc1cc2nc(C#N)c(-c3cc(NC(=O)c4ccnc(C(F)(F)F)c4)ccc3C)cc2cn1` [Compound 79, N-(3-(2-cyano-7-(methylamino)-1,6-naphthyridin-3-yl)-4-methylphenyl)-2-(trifluoromethyl)isonicotinamide] showed a GI50 below 20 nM.

In turn, `CCNc1cc2ncc(-c3cc(NC(=O)c4ccnc(C5(F)CC5)c4)ccc3C)cc2cn1` [Compound 153, N-(3-(7-(ethylamino)-1,6-naphthyridin-3-yl)-4-methylphenyl)-2-(1-fluorocyclopropyl)isonicotinamide] showed a GI50 of 20 to 100 nM.

As for `Cc1ccc(NC(=O)c2ccnc(C3(F)CC3)c2)cc1-c1cnc2cc(N)ncc2c1` [Compound 154, N-(3-(7-amino-1,6-naphthyridin-3-yl)-4-methylphenyl)-2-(1-fluorocyclopropyl)isonicotinamide], the GI50 was below 20 nM.

As to `CCNc1cc2ncc(-c3cc(NC(=O)c4cc(C(C)(C)C#N)ccn4)cnc3C)cc2cn1` [Compound 175, 4-(2-cyanopropan-2-yl)-N-(5-(7-(ethylamino)-1,6-naphthyridin-3-yl)-6-methylpyridin-3-yl)picolinamide], the GI50 was 20 to 100 nM.

`Cc1ncc(NC(=O)c2cc(C(C)(C)C#N)ccn2)cc1-c1cnc2cc(N)ncc2c1` [Compound 176, N-(5-(7-amino-1,6-naphthyridin-3-yl)-6-methylpyridin-3-yl)-4-(2-cyanopropan-2-yl)picolinamide] displayed a GI50 of 20 to 100 nM.

Still in this assay, the particulars now being: Table A2.
As to `CNc1cc2ncc(-c3cc(NC(=O)N(C)c4cc(C(F)F)ccn4)ccc3C)cc2cn1` [Compound 189, 1-(4-(difluoromethyl)pyridin-2-yl)-1-methyl-3-(4-methyl-3-(7-(methylamino)-1,6-naphthyridin-3-yl)phenyl)urea], the GI50 is 100 to 500 nM.

In the case of `CNc1cc2ncc(-c3cc(NC(=O)N(C)c4ccnc(C(F)F)c4)cnc3C)cc2cn1` [Compound 190, 1-(2-(difluoromethyl)pyridin-4-yl)-1-methyl-3-(6-methyl-5-(7-(methylamino)-1,6-naphthyridin-3-yl)pyridin-3-yl)urea], the GI50 was 100 to 500 nM.

Take `CNc1cc2ncc(-c3cc(NC(=O)c4cccc(C5(C#N)CC5)c4)cnc3C)cc2cn1` [Compound 191, 3-(1-cyanocyclopropyl)-N-(6-methyl-5-(7-(methylamino)-1,6-naphthyridin-3-yl)pyridin-3-yl)benzamide]: the GI50 lay in the range of 20 to 100 nM.

Consider `CNc1ncc2cc(-c3cc(NC(=O)c4ccnc(C(C)(C)C#N)c4)cnc3C)cnc2c1C#N` [Compound 192, N-[5-[8-cyano-7-(methylamino)-1,6-naphthyridin-3-yl]-6-methyl-3-pyridyl]-2-(1-cyano-1-methyl-ethyl)pyridine-4-carboxamide], for which the GI50 was 100 to 500 nM.

In turn, `CNc1cc2ncc(-c3cc(NC(=O)c4cccc(C(C)(C)C#N)c4)ccc3C)cc2cn1` [Compound 193, 3-(2-cyanopropan-2-yl)-N-(4-methyl-3-(7-(methylamino)-1,6-naphthyridin-3-yl)phenyl)benzamide] yielded a concentration for 50% growth inhibition (GI50) below 20 nM.

Consider `CNc1cc2ncc(-c3cc(NC(=O)c4c[nH]c5ccccc45)cnc3C)cc2cn1` [Compound 194, N-(6-methyl-5-(7-(methylamino)-1,6-naphthyridin-3-yl)pyridin-3-yl)-1H-indole-3-carboxamide], for which the 50% growth inhibitory concentration (GI50) was 20 to 100 nM.

Consider `CNc1cc2ncc(-c3cc(NC(=O)c4cnc5n4CCC(C)C5)ccc3C)cc2cn1` (centres unmarked) [Compound 195, 7-methyl-N-(4-methyl-3-(7-(methylamino)-1,6-naphthyridin-3-yl)phenyl)-5,6,7,8-tetrahydroimidazo[1,2-a]pyridine-3-carboxamide], for which the GI50 is at least 500 nM.

For `CNc1cc2ncc(-c3cc(C(=O)Nc4cccc(C(C)(C)C#N)c4)cnn3)cc2cn1` [Compound 196, N-(3-(2-cyanopropan-2-yl)phenyl)-6-(7-(methylamino)-1,6-naphthyridin-3-yl)pyridazine-4-carboxamide], the 50% growth inhibitory concentration (GI50) is at least 500 nM.

As for `CNc1cc2ncc(-c3c(C)ncc(NC(=O)c4cc(C(C)(C)C#N)ccn4)c3Cl)cc2cn1` [Compound 197, N-[4-chloro-6-methyl-5-[7-(methylamino)-1,6-naphthyridin-3-yl]-3-pyridyl]-4-(1-cyano-1-methyl-ethyl)pyridine-2-carboxamide], the concentration for 50% growth inhibition (GI50) was at least 500 nM.

For `CNc1cc2ncc(-c3cc(NC(=O)c4cccc5c4CCCC5=O)cnc3C)cc2cn1` [Compound 198, N-(6-methyl-5-(7-(methylamino)-1,6-naphthyridin-3-yl)pyridin-3-yl)-5-oxo-5,6,7,8-tetrahydronaphthalene-1-carboxamide], the 50% growth inhibitory concentration (GI50) is at least 500 nM.

The molecule `CNc1cc2ncc(-c3cc(NC(=O)c4cccc5c4CCCC5O)cnc3C)cc2cn1` (centres unmarked) [Compound 199, 5-hydroxy-N-(6-methyl-5-(7-(methylamino)-1,6-naphthyridin-3-yl)pyridin-3-yl)-5,6,7,8-tetrahydronaphthalene-1-carboxamide] came in with a GI50 of at least 500 nM.

For `CNc1cc2ncc(-c3cc(NC(=O)c4cccc(C(C)(F)F)c4)cnc3C)cc2cn1` [Compound 200, 3-(1,1-difluoroethyl)-N-(6-methyl-5-(7-(methylamino)-1,6-naphthyridin-3-yl)pyridin-3-yl)benzamide], the concentration for 50% growth inhibition (GI50) was below 20 nM.

`CNc1cc2ncc(-c3cc(NC(=O)c4cc(C(O)C5CC5)ccn4)cnc3C)cc2cn1` (centres unmarked) [Compound 201, 4-(cyclopropyl(hydroxy)methyl)-N-(6-methyl-5-(7-(methylamino)-1,6-naphthyridin-3-yl)pyridin-3-yl)picolinamide] displayed a concentration for 50% growth inhibition (GI50) of 20 to 100 nM.

With `CNc1cc2ncc(-c3cc(NC(=O)c4cc(C(O)C(C)C)ccn4)cnc3C)cc2cn1` (centres unmarked) [Compound 202, 4-(1-hydroxy-2-methylpropyl)-N-(6-methyl-5-(7-(methylamino)-1,6-naphthyridin-3-yl)pyridin-3-yl)picolinamide], the concentration for 50% growth inhibition (GI50) was in the range of 20 to 100 nM.

`CNc1cc2ncc(-c3cc(NC(=O)c4cc(C(NC)C(F)(F)F)ccn4)ccc3C)cc2cn1` (centres unmarked) [Compound 203, N-(4-methyl-3-(7-(methylamino)-1,6-naphthyridin-3-yl)phenyl)-4-(2,2,2-trifluoro-1-(methylamino)ethyl)picolinamide] yielded a concentration for 50% growth inhibition (GI50) below 20 nM.
